Measured values reported in patent US20160235781A1, “DIURETIC INDUCED ALTERATIONS OF PLASMA VOLUME” (MAST THERAPEUTICS, INC., priority 2013, published 2016).

Assay: Example 2: diuretic induced hemo-concentration patient, transthoracic echocardiography and body weight
Assay type: in vivo, human
Experimental: A person weighing 180 pounds, with a history of a prior myocardial infarction, was hospitalized with fatigue, peripheral edema and difficulty in breathing. […] Diuretic therapy effected by administering IV bolus doses of 150 mg furosemide every 12 hours was started. Their body weight measurement after 48 hours of furosemide treatment was 172 pounds.
The patient was continued on furosemide and a 15% solution of purified poloxamer 188 in citrate buffered saline was administered at a dose of 250 mg/kg as an IV infusion over a period of 1 hour. Twenty-four hours later, their body weight was 168 pounds.

Q: With `NS(=O)(=O)c1cc(C(=O)O)c(NCc2ccco2)cc1Cl` [furosemide] as the molecule, how does the body weight (after 48 hours of furosemide 150 mg IV bolus every 12 hours, 180 pounds at admission) read?
A: 172 pounds

Q: And the ejection fraction (after 48 hours of furosemide alone, 30% at admission)?
A: 29%
